# Measured values from ChEMBL document CHEMBL1221210, “A Cdc7 kinase inhibitor restricts initiation of DNA replication and has antitumor activity” (Nat Chem Biol, 2008).
# Active and inactive are the calls of the source. The rule behind the calls is not given here.
# Assays:
# Jurkat [1] = test: Induction of cell cycle arrest in p53 deficient human Jurkat cells assessed as accumulation at subG1 phase at 0.1 uM after 24hrs by FACS analysis; type: functional
# PC-3 [2] = test: Antiproliferative activity against human PC3 cells expressing p53 gene after 72 hrs by proliferative assay; type: functional, cell-based; conditions: PC-3, 72 h
# [3] = Antiproliferative activity against p53 deficient human HCT116/E6 cells after 72 hrs by proliferative assay; type: functional, cell-based; conditions: HCT116-E6, 72 h
# HCT-116 [4] = test: Induction of cell cycle arrest in human HCT116 cells expressing p53 gene assessed as accumulation at subG1 phase at 0.1 uM after 24hrs by FACS analysis; type: functional
# K562 [5] = test: Antiproliferative activity against p53 deficient human K562 cells after 72 hrs; type: functional, cell-based; conditions: K562, 72 h
# K562 [6] = test: Induction of cell cycle arrest in p53 deficient human K562 cells assessed as accumulation at subG1 phase at 0.1 uM after 24hrs by FACS analysis; type: functional
# U2OS [7] = test: Induction of cell cycle arrest in human U2OS cells expressing p53 gene assessed as accumulation at subG1 phase at 0.1 uM after 24hrs by FACS analysis; type: functional
# MCF7 [8] = test: Induction of cell cycle arrest in human MCF7 cells expressing p53 gene assessed as accumulation at subG1 phase at 0.1 uM after 24hrs by FACS analysis; type: functional
# SF-268 [9] = test: Antiproliferative activity against p53 deficient human SF268 cells after 72 hrs; type: functional, cell-based; conditions: SF-268, 72 h
# [10] = Induction of cell cycle arrest in p53 deficient human A2780/E6 cells as accumulation at subG1 phase at 0.1 uM after 24hrs by FACS analysis; type: functional
# HCT-15 [11] = test: Antiproliferative activity against human HCT15 cells expressing p53 gene after 72 hrs by proliferative assay; type: functional, cell-based; conditions: HCT-15, 72 h
# MCF7 [12] = test: Antiproliferative activity against human MCF7 cells expressing p53 gene after 72 hrs by proliferative assay; type: functional, cell-based; conditions: MCF7, 72 h
# SF-268 [13] = test: Induction of cell cycle arrest in p53 deficient human SF268 cells assessed as accumulation at subG1 phase at 0.1 uM after 24 hrs FACS analysis; type: functional
# HeLa [14] = test: Induction of cell cycle arrest in p53 deficient human HeLa cells assessed as assessed as accumulation at subG1 phase at 0.1 uM after 24hrs by FACS analysis; type: functional
# COLO 205 [15] = test: Antiproliferative activity against p53 deficient human COLO205 cells after 72 hrs; type: functional, cell-based; conditions: COLO 205, 72 h
# COLO 205 [16] = test: Induction of cell cycle arrest in p53 deficient human COLO205 cells assessed as accumulation at subG1 phase at 0.1 uM after 24hrs by FACS analysis; type: functional
# [17] = Induction of cell cycle arrest in p53 deficient human HCT116-E6 cells assessed as accumulation at subG1 phase at 0.1 uM after 24hrs by FACS analysis; type: functional
# OVCAR-8 [18] = test: Antiproliferative activity against p53 deficient human OVCAR8 cells after 72 hrs by proliferative assay; type: functional, cell-based; conditions: OVCAR-8, 72 h
# NHDF [19] = test: Antiproliferative activity against NHDF expressing p53 gene after 72 hrs by proliferative assay; type: cell-based; conditions: Homo sapiens
# A2780 [20] = test: Antiproliferative activity against human A2780 cells expressing p53 gene after 72 hrs by proliferative assay; type: functional, cell-based; conditions: A2780, 72 h
# PC-3 [21] = test: Induction of cell cycle arrest in human PC3 cells expressing p53 gene assessed as accumulation at subG1 phase at 0.1 uM after 24hrs by FACS analysis; type: functional
# NHDF [22] = test: Induction of cell cycle arrest in NHDF expressing p53 gene assessed as accumulation at subG1 phase at 0.1 uM after 24hrs by FACS analysis; type: cell-based; conditions: human
# U2OS [23] = test: Antiproliferative activity against human U2OS cells expressing p53 gene after 72 hrs by proliferative assay; type: functional, cell-based
# SF-539 [24] = test: Antiproliferative activity against human SF539 cells expressing p53 gene after 72 hrs by proliferative assay; type: functional, cell-based; conditions: SF-539, 72 h
# SW480 [25] = test: Induction of cell cycle arrest in p53 deficient human SW480 cells assessed as accumulation at subG1 phase at 0.1 uM after 24hrs by FACS analysis; type: functional
# Jurkat [26] = test: Antiproliferative activity against p53 deficient human Jurkat cells after 72 hrs by proliferative assay; type: functional, cell-based
# [27] = Antiproliferative activity against p53 deficient human A2780/E6 cells after 72 hrs by proliferative assay; type: functional, cell-based; conditions: A2780/E6, 72 h
# OVCAR-8 [28] = test: Induction of cell cycle arrest in p53 deficient human OVCAR8 cells assessed as accumulation at subG1 phase at 0.1 uM after 24hrs by FACS analysis; type: functional
# HCT-15 [29] = test: Induction of cell cycle arrest in human HCT15 cells expressing p53 gene assessed as accumulation at subG1 phase at 0.1 uM after 24hrs by FACS analysis; type: functional
# HeLa [30] = test: Antiproliferative activity against p53 deficient human HeLa cells after 72 hrs; type: functional, cell-based
# HCT-116 [31] = test: Antiproliferative activity against human HCT116 cells expressing p53 gene after 72 hrs by proliferative assay; type: functional, cell-based; conditions: HCT-116, 72 h
# SF-539 [32] = test: Induction of cell cycle arrest in human SF539 cells expressing p53 gene assessed as accumulation at subG1 phase at 0.1 uM after 24hrs by FACS analysis; type: functional
# A2780 [33] = test: Induction of cell cycle arrest in human A2780 cells expressing p53 gene assessed as accumulation at subG1 phase at 0.1 uM after 24hrs by FACS analysis; type: functional
# SW480 [34] = test: Antiproliferative activity against p53 deficient human SW480 cells after 72 hrs by proliferative assay; type: functional, cell-based; conditions: SW480, 72 h
# A2780 [35] = test: Induction of apoptosis in human A2780 cells assessed as appearance of Mcl1 protein level after 24 hrs; type: functional, cell-based
# Jurkat [36] = test: Induction of cell cycle arrest in p53 deficient human Jurkat cells assessed as accumulation at subG1 phase at 100 uM after 24hrs by FACS analysis; type: functional
# SF-268 [37] = test: Induction of cell cycle arrest in p53 deficient human SF268 cells assessed as accumulation at subG1 phase at 100 uM after 24 hrs FACS analysis; type: functional
# [38] = Induction of cell cycle arrest in p53 deficient human A2780/E6 cells as accumulation at subG1 phase at 100 uM after 24hrs by FACS analysis; type: functional
# PC-3 [39] = test: Induction of cell cycle arrest in human PC3 cells expressing p53 gene assessed as accumulation at subG1 phase at 100 uM after 24hrs by FACS analysis; type: functional
# HCT-15 [40] = test: Induction of cell cycle arrest in human HCT15 cells expressing p53 gene assessed as accumulation at subG1 phase at 100 uM after 24hrs by FACS analysis; type: functional
# MCF7 [41] = test: Induction of cell cycle arrest in human MCF7 cells expressing p53 gene assessed as accumulation at subG1 phase at 100 uM after 24hrs by FACS analysis; type: functional
# COLO 205 [42] = test: Induction of cell cycle arrest in p53 deficient human COLO205 cells assessed as accumulation at subG1 phase at 100 uM after 24hrs by FACS analysis; type: functional
# A2780 [43] = test: Induction of cell cycle arrest in human A2780 cells expressing p53 gene assessed as accumulation at subG1 phase at 100 uM after 24hrs by FACS analysis; type: functional
# NHDF [44] = test: Induction of cell cycle arrest in NHDF expressing p53 gene assessed as accumulation at subG1 phase at 100 uM after 24hrs by FACS analysis; type: cell-based; conditions: human
# SW480 [45] = test: Induction of cell cycle arrest in p53 deficient human SW480 cells assessed as accumulation at subG1 phase at 100 uM after 24hrs by FACS analysis; type: functional
# SF-539 [46] = test: Induction of cell cycle arrest in human SF539 cells expressing p53 gene assessed as accumulation at subG1 phase at 100 uM after 24hrs by FACS analysis; type: functional
# [47] = Induction of cell cycle arrest in p53 deficient human HCT116-E6 cells assessed as accumulation at subG1 phase at 100 uM after 24hrs by FACS analysis; type: functional
# K562 [48] = test: Induction of cell cycle arrest in p53 deficient human K562 cells assessed as accumulation at subG1 phase at 100 uM after 24hrs by FACS analysis; type: functional
# HCT-116 [49] = test: Induction of cell cycle arrest in human HCT116 cells expressing p53 gene assessed as accumulation at subG1 phase at 100 uM after 24hrs by FACS analysis; type: functional
# U2OS [50] = test: Induction of cell cycle arrest in human U2OS cells expressing p53 gene assessed as accumulation at subG1 phase at 100 uM after 24hrs by FACS analysis; type: functional
# HeLa [51] = test: Induction of cell cycle arrest in p53 deficient human HeLa cells assessed as assessed as accumulation at subG1 phase at 100 uM after 24hrs by FACS analysis; type: functional
# OVCAR-8 [52] = test: Induction of cell cycle arrest in p53 deficient human OVCAR8 cells assessed as accumulation at subG1 phase at 100 uM after 24hrs by FACS analysis; type: functional
structure (smiles),measurement,setting,value
Nc1ccn([C@@H]2O[C@H](CO)[C@@H](O)C2(F)F)c(=O)n1 [GEMCITABINE],Activity,Jurkat [1],>20%
same,IC50,PC-3 [2],0.0026 µM
same,IC50,[3],0.896 µM
same,Activity,HCT-116 [4],<3%
same,IC50,K562 [5],0.746 µM
same,Activity,K562 [6],<3%
same,Activity,U2OS [7],<3%
same,Activity,MCF7 [8],<3%
same,IC50,SF-268 [9],0.0103 µM
same,Activity,[10],<3%
same,IC50,HCT-15 [11],0.0099 µM
same,IC50,MCF7 [12],0.0803 µM
same,Activity,SF-268 [13],<3%
same,Activity,HeLa [14],<3%
same,IC50,COLO 205 [15],0.0514 µM
same,Activity,COLO 205 [16],<3%
same,Activity,[17],<3%
same,IC50,OVCAR-8 [18],0.0026 µM
same,IC50,NHDF [19],0.0221 µM
same,IC50,A2780 [20],0.0166 µM
same,Activity,PC-3 [21],<3%
same,Activity,NHDF [22],< 3%
same,IC50,U2OS [23],0.0907 µM
same,IC50,SF-539 [24],0.0198 µM
same,Activity,SW480 [25],<3%
same,IC50,Jurkat [26],0.0453 µM
same,IC50,[27],0.0026 µM
same,Activity,OVCAR-8 [28],<3%
same,Activity,HCT-15 [29],3%
same,IC50,HeLa [30],> 10 µM
same,IC50,HCT-116 [31],0.0097 µM
same,Activity,SF-539 [32],<3%
same,Activity,A2780 [33],<3%
same,IC50,SW480 [34],0.0136 µM
CN1CC[C@H](c2c(O)cc(O)c3c(=O)cc(-c4ccccc4Cl)oc23)[C@H](O)C1,inhibition,A2780 [35],Active
O=c1[nH]cc(F)c(=O)[nH]1 [FLUOROURACIL],Activity,Jurkat [36],<3%
same,IC50,PC-3 [2],13.8 µM
same,Activity,SF-268 [37],<3%
same,Activity,[38],<3%
same,IC50,[3],28.9 µM
same,Activity,PC-3 [39],<3%
same,IC50,K562 [5],> 100 µM
same,Activity,HCT-15 [40],<3%
same,Activity,MCF7 [41],<3%
same,Activity,COLO 205 [42],<3%
same,IC50,SF-268 [9],88 µM
same,Activity,A2780 [43],<3%
same,IC50,HCT-15 [11],18.2 µM
same,IC50,MCF7 [12],26.7 µM
same,Activity,NHDF [44],< 3%
same,IC50,COLO 205 [15],11.6 µM
same,Activity,SW480 [45],<3%
same,IC50,OVCAR-8 [18],96.4 µM
same,Activity,SF-539 [46],<3%
same,IC50,NHDF [19],14.7 µM
same,IC50,A2780 [20],7.21 µM
same,Activity,[47],<3%
same,IC50,U2OS [23],13.2 µM
same,IC50,SF-539 [24],50.1 µM
same,IC50,Jurkat [26],87.7 µM
same,Activity,K562 [48],<3%
same,Activity,HCT-116 [49],10%
same,IC50,[27],38.7 µM
same,Activity,U2OS [50],<3%
same,Activity,HeLa [51],<3%
same,Activity,OVCAR-8 [52],<3%
same,IC50,HeLa [30],> 100 µM
same,IC50,HCT-116 [31],6.36 µM
same,IC50,SW480 [34],26.3 µM
